# Measurements from patent US12209144B2, “Cyclic peptides as proprotein convertase subtilisin/kexin type 9 (PCSK9) inhibitors for the treatment of metabolic disorders” (Novartis AG, priority 2018, dated 2025).
# Bridge positions count the residues as written; N and C are the ends. Square brackets hold non-standard residues; d marks the D form. Peptide text beside a SMILES is read from it. Bip = N[C@@H](Cc1ccc(-c2ccccc2)cc1)C(=O)O; NMeE = CN[C@@H](CCC(=O)O)C(=O)O; NMeA = CN[C@@H](C)C(=O)O
# Target: human PCSK9 (Homo sapiens, UniProt Q8NBP7)
# Sequence (Q8NBP7 153-692): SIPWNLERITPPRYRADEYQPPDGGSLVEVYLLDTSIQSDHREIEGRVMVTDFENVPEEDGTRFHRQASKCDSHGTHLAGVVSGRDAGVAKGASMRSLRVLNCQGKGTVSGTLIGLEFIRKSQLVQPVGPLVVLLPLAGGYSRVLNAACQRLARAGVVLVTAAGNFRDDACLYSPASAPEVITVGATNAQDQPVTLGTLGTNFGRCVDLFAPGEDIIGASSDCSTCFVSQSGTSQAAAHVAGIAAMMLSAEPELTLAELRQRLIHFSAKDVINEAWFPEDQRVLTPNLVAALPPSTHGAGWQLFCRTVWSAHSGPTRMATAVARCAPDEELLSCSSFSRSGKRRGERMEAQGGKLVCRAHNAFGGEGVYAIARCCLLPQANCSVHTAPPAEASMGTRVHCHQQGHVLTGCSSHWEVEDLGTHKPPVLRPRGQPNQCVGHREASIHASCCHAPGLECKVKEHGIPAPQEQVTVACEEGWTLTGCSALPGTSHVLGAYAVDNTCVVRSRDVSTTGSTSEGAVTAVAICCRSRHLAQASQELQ
# Sequence (Q8NBP7 31-152 partner limits assumed): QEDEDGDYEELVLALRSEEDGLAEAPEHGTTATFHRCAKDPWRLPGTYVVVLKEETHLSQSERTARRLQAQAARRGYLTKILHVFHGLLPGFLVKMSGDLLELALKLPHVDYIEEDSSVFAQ
# Assay: PCSK9 ligand binding assay (TR-FRET): interference with binding of human PCSK9 to human LDLR
# Conditions: PCSK9 FRET assay, efficacy (Amax); 0% = DMSO, 100% = 1 uM unlabeled human PCSK9
row,Maximum % inhibition,SMILES
1,61%,"CCNC(=O)[C@@H]1CSCC(=O)N[C@@H](Cc2ccccc2)C(=O)N[C@@H](C(C)C)C(=O)N[C@@H](CC(N)=O)C(=O)N[C@@H]([C@@H](C)O)C(=O)N[C@@H]([C@@H](C)O)C(=O)N[C@@H](Cc2ccccc2)C(=O)N(C)[C@@H](C)C(=O)N[C@@H](Cc2ccc(-c3ccccc3)cc2)C(=O)N(C)[C@@H](C)C(=O)N(C)[C@@H](CCC(=O)O)C(=O)N[C@@H](C)C(=O)N2CCC[C@H]2C(=O)N1 [Example 3-1, 3-((3R,9S,12S,15S,18S,21S,24S,27S,30S,33S,36S,39S,44aS)-30-([1,1′-biphenyl]-4-ylmethyl)-15-(2-amino-2-oxoethyl)-9,24-dibenzyl-3-(ethylcarbamoyl)-18,21-bis((R)-1-hydroxyethyl)-12-isopropyl-26,27,32,33,35,39-hexamethyl-1,7,10,13,16,19,22,25,28,31,34,37,40-tridecaoxodotetracontahydro-6H-pyrrolo[2,1-f][1]thia[4,7,10,13,16,19,22,25,28,31,34,37,40]tridecaazacyclodotetracontin-36-yl)propanoic acid] ({CH2CO}-FVNTTF[NMeA][Bip][NMeA][NMeE]APC-NHEt; thioether N-13)"
2,83%,"CCNC(=O)[C@@H]1CSCC(=O)N[C@@H](Cc2ccccc2)C(=O)N[C@@H](C(C)C)C(=O)N2CCC[C@H]2C(=O)N[C@@H]([C@@H](C)O)C(=O)N[C@@H]([C@@H](C)O)C(=O)N[C@@H](Cc2ccccc2)C(=O)N(C)[C@@H](C)C(=O)N[C@@H](Cc2ccc(-c3ccccc3)cc2)C(=O)N(C)[C@@H](C)C(=O)N[C@@H](CCC(=O)O)C(=O)N[C@@H](C)C(=O)N2CCC[C@H]2C(=O)N1 [Example 3-2, Ac*-F-V-P-T-T-F-(N-Me)A-B-(N-Me)A-E-A-P-C*-NHEt] ({CH2CO}-FVPTTF[NMeA][Bip][NMeA]EAPC-NHEt; thioether N-13)"
3,87%,"CCNC(=O)[C@@H]1CSCC(=O)N[C@@H](Cc2ccccc2)C(=O)N[C@@H](C(C)C)C(=O)N2CCC[C@H]2C(=O)N[C@@H]([C@@H](C)O)C(=O)N[C@@H]([C@@H](C)O)C(=O)N[C@@H](Cc2ccc(-c3ccccc3)cc2)C(=O)N(C)[C@@H](C)C(=O)N[C@@H](Cc2ccc(-c3ccccc3)cc2)C(=O)N(C)[C@@H](C)C(=O)N[C@@H](CCC(=O)O)C(=O)N[C@@H](C)C(=O)N2CCC[C@H]2C(=O)N1 [Example 3-3, Ac*-F-V-P-T-T-B-(N-Me)A-B-(N-Me)A-E-A-P-C*-NHEt]"
4,49%,"CCNC(=O)[C@@H]1CSCC(=O)N[C@@H](Cc2ccccc2)C(=O)N[C@@H](C(C)C)C(=O)N2CCC[C@H]2C(=O)N[C@@H]([C@@H](C)O)C(=O)N[C@@H]([C@@H](C)O)C(=O)N[C@@H](Cc2ccc(-c3ccccc3)cc2)C(=O)N(C)[C@@H](C)C(=O)N[C@@H](Cc2ccc(-c3ccccc3)cc2)C(=O)N(C)[C@@H](C)C(=O)N[C@@H](C)C(=O)N[C@@H](C)C(=O)N2CCC[C@H]2C(=O)N1 [Example 3-4, Ac*-F-V-P-T-T-B-(N-Me)A-B-(N-Me)A-A-A-P-C*-NHEt] ({CH2CO}-FVPTT[Bip][NMeA][Bip][NMeA]AAPC-NHEt; thioether N-13)"
